Values quoted from earlier work in patent US11791016B2, “Methods and systems for computer-generated predictive application of neuroimaging and gene expression mapping data” (NEUMORA THERAPEUTICS, INC., priority 2017, dated 2023).

Legend:
[1] = target: 5-HT2A serotonin receptor (Homo sapiens, UniProt P28223); details: healthy human subjects
5HT6 receptors = 5HT6 receptors (Homo sapiens, UniProt P50406)
[2] = target: muscarinic M3 (CHRM3) receptor (Homo sapiens, UniProt P20309)
histamine H3 receptor = target: T1, histamine H3 receptor (Homo sapiens, UniProt Q9Y5N1); details: patients with schizophrenia
T1 construct: host or cells: patients with schizophrenia, in vivo (Egan et al. 2013)
T1 sequence (Q9Y5N1 whole entry): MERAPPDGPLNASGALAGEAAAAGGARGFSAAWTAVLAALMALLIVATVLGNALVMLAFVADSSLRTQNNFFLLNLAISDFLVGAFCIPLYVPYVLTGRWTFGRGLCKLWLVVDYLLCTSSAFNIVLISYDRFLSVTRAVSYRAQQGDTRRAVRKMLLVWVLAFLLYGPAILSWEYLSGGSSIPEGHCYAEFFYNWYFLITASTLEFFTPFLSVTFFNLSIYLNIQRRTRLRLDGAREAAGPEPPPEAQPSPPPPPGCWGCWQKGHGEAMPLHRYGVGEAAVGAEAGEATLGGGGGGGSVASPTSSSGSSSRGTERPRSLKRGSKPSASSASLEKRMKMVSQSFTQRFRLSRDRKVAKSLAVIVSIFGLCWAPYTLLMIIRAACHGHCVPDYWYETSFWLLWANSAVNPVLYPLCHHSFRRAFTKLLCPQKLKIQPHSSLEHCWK

Sequence of 5-HT2A serotonin receptor (P28223 whole entry): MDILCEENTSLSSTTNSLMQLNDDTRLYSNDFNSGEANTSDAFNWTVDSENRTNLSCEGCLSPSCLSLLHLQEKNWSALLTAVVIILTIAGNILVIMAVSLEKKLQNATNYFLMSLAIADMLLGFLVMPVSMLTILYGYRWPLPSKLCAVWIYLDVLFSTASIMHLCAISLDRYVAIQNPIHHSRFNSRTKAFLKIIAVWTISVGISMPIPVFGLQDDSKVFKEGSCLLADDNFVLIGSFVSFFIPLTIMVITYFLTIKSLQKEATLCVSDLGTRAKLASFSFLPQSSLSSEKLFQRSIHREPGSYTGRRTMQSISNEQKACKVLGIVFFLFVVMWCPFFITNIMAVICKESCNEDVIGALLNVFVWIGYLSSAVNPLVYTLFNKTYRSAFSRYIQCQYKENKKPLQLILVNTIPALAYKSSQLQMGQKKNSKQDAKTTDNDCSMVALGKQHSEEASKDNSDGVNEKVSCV
Sequence of muscarinic M3 (CHRM3) receptor (P20309 whole entry, species assumed): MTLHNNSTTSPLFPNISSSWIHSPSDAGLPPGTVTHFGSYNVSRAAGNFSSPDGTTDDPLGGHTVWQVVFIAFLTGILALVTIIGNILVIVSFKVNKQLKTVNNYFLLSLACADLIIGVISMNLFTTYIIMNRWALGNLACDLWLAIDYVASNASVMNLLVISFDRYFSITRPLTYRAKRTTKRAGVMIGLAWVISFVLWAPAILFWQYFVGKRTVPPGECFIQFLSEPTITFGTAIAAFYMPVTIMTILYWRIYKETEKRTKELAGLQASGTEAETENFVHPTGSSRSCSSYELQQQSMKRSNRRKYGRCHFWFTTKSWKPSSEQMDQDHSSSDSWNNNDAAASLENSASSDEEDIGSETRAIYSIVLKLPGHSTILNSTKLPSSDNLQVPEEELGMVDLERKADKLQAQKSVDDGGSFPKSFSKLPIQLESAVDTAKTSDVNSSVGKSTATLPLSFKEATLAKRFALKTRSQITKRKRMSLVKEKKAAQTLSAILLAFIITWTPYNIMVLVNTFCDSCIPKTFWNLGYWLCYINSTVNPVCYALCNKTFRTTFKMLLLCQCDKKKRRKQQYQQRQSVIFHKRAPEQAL
Sequence of 5HT6 receptors (P50406 whole entry): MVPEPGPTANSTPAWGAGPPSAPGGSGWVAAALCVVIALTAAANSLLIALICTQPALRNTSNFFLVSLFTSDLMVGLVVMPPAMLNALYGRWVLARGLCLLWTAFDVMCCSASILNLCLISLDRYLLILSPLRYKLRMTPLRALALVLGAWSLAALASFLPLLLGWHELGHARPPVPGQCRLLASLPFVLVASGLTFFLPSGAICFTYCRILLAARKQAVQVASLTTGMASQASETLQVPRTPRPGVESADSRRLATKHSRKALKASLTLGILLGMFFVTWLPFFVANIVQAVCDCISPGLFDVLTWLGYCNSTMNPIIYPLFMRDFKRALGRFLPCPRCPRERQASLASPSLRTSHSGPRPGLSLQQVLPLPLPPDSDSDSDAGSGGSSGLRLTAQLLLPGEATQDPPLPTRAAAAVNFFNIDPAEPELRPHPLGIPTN

Compound: O=C(c1ccc(F)cc1)C1CCN(CCn2c(=O)[nH]c3ccccc3c2=O)CC1 [ketanserin]
- effect on LSD-induced neural change (GBC) ([1]; pre-administration before LSD): blocked
- effect on behavioral effects of LSD ([1]; pre-administration before LSD): blocked

Compound: CCN(CC)C(=O)[C@@H]1C=C2c3cccc4[nH]cc(c34)C[C@H]2N(C)C1 [LSD, lysergic acid diethylamide]
- change in mean functional connectivity (Global Brain Connectivity, GBC) ([1]; acute administration, fMRI-derived cortical map): large increase in occipital visual cortex

Compound: O=C1Nc2ccc(Cl)cc2[C@@](C#CC2CC2)(C(F)(F)F)O1 [efavirenz]
- mode of action at 5HT6 receptors (5HT6 receptors): inverse agonist activity
- mode of action at muscarinic M3 (CHRM3) receptor [2]: antagonist activity

Compound: Cc1nc2cccc(C(F)(F)F)c2c(=O)n1-c1ccc(OCCCN2CCCC2)cc1 [MK-0249]
- improvement of cognitive deficits (histamine H3 receptor): failed to improve cognitive deficits
